Source: ChEMBL document CHEMBL4422680, “Synthesis, biological evaluation, and molecular docking study of novel allyl-retrochalcones as a new class of protein tyrosine phosphatase 1B inhibitors” (Bioorg Med Chem, 2019)
pIC50: −log10 of the molar value.

Assays:
[1] = molecular target: T1, Tyrosine-protein phosphatase non-receptor type 1 (Homo sapiens, UniProt P18031); assay: (§1) Inhibition of recombinant human PTP1B using pNPP as substrate measured after 30 mins; settings: for pIC50: read-out: IC50
T1 sequence (P18031 whole entry): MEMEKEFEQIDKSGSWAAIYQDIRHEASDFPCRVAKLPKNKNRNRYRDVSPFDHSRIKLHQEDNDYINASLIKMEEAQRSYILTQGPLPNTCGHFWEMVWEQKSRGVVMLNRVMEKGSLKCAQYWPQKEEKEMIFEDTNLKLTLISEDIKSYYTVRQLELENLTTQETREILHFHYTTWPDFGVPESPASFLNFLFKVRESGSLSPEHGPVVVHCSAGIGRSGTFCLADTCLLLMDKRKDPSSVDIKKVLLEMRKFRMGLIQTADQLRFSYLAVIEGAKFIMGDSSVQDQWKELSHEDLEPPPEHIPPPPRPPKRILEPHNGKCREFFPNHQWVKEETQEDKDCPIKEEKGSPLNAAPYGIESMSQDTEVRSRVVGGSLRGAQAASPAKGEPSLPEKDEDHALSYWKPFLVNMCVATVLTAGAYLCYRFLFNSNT

[2] = molecular target: T2, Tyrosine-protein phosphatase non-receptor type 1 (Homo sapiens) (UniProt P18031); assay: as §1
T2 sequence (whole entry): T1 sequence (P18031 whole entry)

Structure (SMILES) | pIC50 [1] | inhibition [2] | IC50 [1]
C=CCc1cc(/C=C/C(=O)c2ccc(OCCCC(=O)O)cc2)c(OC)cc1O | 4.48 |  | 
C=CCc1cc(/C=C/C(=O)c2ccc(OC)c(CC=C)c2)c(OC)cc1O | 4.96 | Dose-dependent effect | 
C=CCc1cc(/C=C/C(=O)c2ccc(O)cc2)c(OC)cc1O | 4.89 | Dose-dependent effect | 
C=CCc1cc(/C=C/C(=O)c2ccc(OC)c(CC=C(C)C)c2)c(OC)cc1O | 5.09 | Dose-dependent effect | 
C=CCc1cc(/C=C/C(=O)c2ccc(N(C)C)cc2)c(OC)cc1O | 5.16 | Dose-dependent effect | 
C=CCc1cc(/C=C/C(=O)c2ccc(OC)c(C(C)C(=C)C)c2)c(OC)cc1O (centres undefined) | 5.27 | Dose-dependent effect | 
C=CCc1cc(/C=C/C(=O)c2ccc(-n3cccn3)cc2)c(OC)cc1O | 5.20 | Dose-dependent effect | 
C=CCOc1ccc(C(=O)/C=C/c2cc(CC=C)c(O)cc2OC)c(OC)c1 | 5.41 | Dose-dependent effect | 
C=CCc1cc(/C=C/C(=O)c2cccc(NS(C)(=O)=O)c2)c(OC)cc1O |  |  | Not Active
C=CCc1cc(/C=C/C(=O)c2cccc(N(C)C)c2)c(OC(C)C)cc1O | 5.16 | Dose-dependent effect | 
C=CCc1cc(/C=C/C(=O)c2ccc(OCC(=O)O)cc2)c(OC)cc1O | 4.90 | Dose-dependent effect | 
C=CCc1cc(/C=C/C(=O)c2cccc(N3CCCCC3)c2)c(OC)cc1O | 5.14 | Dose-dependent effect | 
C=CCc1cc(/C=C/C(=O)c2ccc(OCCCCC(=O)O)cc2)c(OC)cc1O | 5.24 | Dose-dependent effect | 
C=CCc1cc(/C=C/C(=O)c2ccc(N3CCCCC3)cc2)c(OC)cc1O | 5.16 | Dose-dependent effect | 
C=CCc1cc(/C=C/C(=O)c2cccc(N(C)C)c2)c(OCc2ccccc2)cc1O | 5.30 | Dose-dependent effect | 
C=CCc1cc(/C=C/C(=O)c2ccc(O)cc2)c(OC)cc1OC1CCCCO1 (centres undefined) | 5.03 | Dose-dependent effect | 
C=CCc1cc(/C=C/C(=O)c2ccc(OCC=C(C)C)cc2O)c(OC)cc1O | 5.52 | Dose-dependent effect | 
C=CCc1cc(/C=C/C(=O)c2cccc(O)c2)c(OC)cc1O |  |  | Not Active
C=CCc1cc(/C=C/C(=O)c2ccccc2N(C)C)c(OC)cc1O | 4.79 | Dose-dependent effect | 
C=CCOc1ccc(C(=O)/C=C/c2cc(CC=C)c(O)cc2OC)cc1 | 5.27 | Dose-dependent effect | 
C=CCc1cc(/C=C/C(=O)c2ccc(OCC(=O)OCC)cc2)c(OC)cc1O | 5.03 | Dose-dependent effect | 
